Article PMC9151520 (Archives of Toxicology, 2022)
Several values for one entry are separate records, joined by “and”; a condition that tells them apart may be missing. Equal entries are not always repeated. Where two headings read alike, the source gives them in different places.

Assays:
[1] = system: p53 signaling (p53RE-bla HCT-116 cells); experiment: cells; type: cell-based
[2] = system: p53 signaling (p53RE-bla HCT-116 cells); conditions: for EC50: read-out: p53 activation EC50, HLM
[3] = system: p53 signaling (p53RE-bla HCT-116 cells)
[4] = Homo sapiens, HCT-116, read-out: p53 activation EC50, cherry pick confirmation
[5] = Homo sapiens, HCT-116, read-out: p53 activation EC50, primary screening
[6] = Homo sapiens, HCT-116, read-out: p53 activation efficacy, cherry pick confirmation
[7] = Homo sapiens, HCT-116, read-out: p53 activation efficacy, primary screening
[8] = read-out: p53 activation EC50, cherry pick confirmation
[9] = read-out: p53 activation EC50, primary screening
[10] = read-out: Viability EC50, cherry pick confirmation

| Molecule | EC50 [1, 4] | EC50 [1, 5] | Emax [1, 6] | Emax [1, 7] | p53 activation EC50, cherry pick confirmation [2] | p53 activation EC50, primary screening [2] | p53 activation efficacy, cherry pick confirmation [2] | p53 activation efficacy, primary screening [2] | Viability EC50, cherry pick confirmation (p53RE-bla HCT-116 cells) | Viability EC50, primary screening (p53RE-bla HCT-116 cells) | Viability efficacy, cherry pick confirmation (p53RE-bla HCT-116 cells) | Viability efficacy, primary screening (p53RE-bla HCT-116 cells) | p53 activation EC50, cherry pick confirmation [3] | p53 activation EC50, primary screening [3] | p53 activation efficacy, cherry pick confirmation [3] | p53 activation efficacy, primary screening [3] | also measured |
| --- | --- | --- | --- | --- | --- | --- | --- | --- | --- | --- | --- | --- | --- | --- | --- | --- | --- |
| O=C(O)c1c(O)c(-c2ccccc2)nc2ccccc12 [Oxycinchophen] | 23.1 µM | 16.6 µM | 87.1% | 60.5% | inactive | inactive | inactive | inactive | inactive | inactive | inactive | inactive | inactive | inactive | inactive | inactive | – |
| C#C[C@]1(O)CC[C@H]2[C@@H]3CCc4cc(O)ccc4[C@H]3CC[C@@]21C [17alpha-Ethinylestradiol] | 3.62 µM | 11.9 µM | 50.6% | 38.5% | inactive | inactive | inactive | inactive | inactive | inactive | inactive | inactive | inactive | inactive | inactive | inactive | – |
| CC(=O)[O][Sn]([c]1ccccc1)([c]1ccccc1)[c]1ccccc1 [Triphenyltin acetate] | – | – | – | – | inactive | inactive | inactive | inactive | – | – | – | – | inactive | inactive | inactive | inactive | p53 activation efficacy, cherry pick confirmation [1]: 67.021; p53 activation efficacy, primary screening [1]: 86.4573; EC50 [1, 8]: 14.4 µM; EC50 [1, 9]: 22 µM; EC50 (p53RE-bla HCT-116 cells; [10]): 5.01 µM and 5.33 µM and 6.71 µM; EC50 (p53RE-bla HCT-116 cells; read-out: Viability EC50, primary screening): 5.39 µM and 7.79 µM and 6.43 µM |
| N=C1NC(=N)c2cc3ccccc3cc21 [1,3-Diiminobenz(f)isoindoline] | – | – | – | – | – | – | – | – | – | – | – | – | – | – | – | – | p53 activation efficacy [1]: 115.412 and 121.93; EC50 ([1]; read-out: p53 activation EC50): 23.7 µM and 25.2 µM; p53 activation EC50 [2]: inactive; Viability EC50 (p53RE-bla HCT-116 cells): inactive; p53 activation EC50 [3]: inactive |
| Thimerosal | – | – | – | – | – | – | – | – | – | – | – | – | – | – | – | – | p53 activation Efficacy, No MS [1]: 73.3573% and 52.656%; p53 activation EC50, HLM [2]: inactive; EC50 [2]: 5.03 µM; EC50 (p53RE-bla HCT-116 cells; read-out: Viability EC50, HLM): 10.6 µM and 8.9 µM; EC50 (p53RE-bla HCT-116 cells; read-out: Viability EC50, No MS): 8.56 µM and 9.16 µM; EC50 (p53RE-bla HCT-116 cells; read-out: Viability EC50, RLM): 8.9 µM; p53 activation EC50, RLM [3]: inactive; p53 activation Efficacy, RLM [3]: inactive |
| c1cc(N(CC2CO2)CC2CO2)ccc1OCC1CO1 (centres unmarked) [4-(Diglycidylamino)phenyl glycidyl ether] | – | – | – | – | inactive | inactive | inactive | inactive | inactive | inactive | inactive | inactive | inactive | inactive | inactive | inactive | p53 activation efficacy, cherry pick confirmation [1]: 85.4543; p53 activation efficacy, primary screening [1]: 57.856; EC50 [1, 8]: 23.5 µM; EC50 [1, 9]: 27.3 µM |
| [F][Sn]([c]1ccccc1)([c]1ccccc1)[c]1ccccc1 [Triphenyltin fluoride] | – | – | – | – | inactive | inactive | inactive | inactive | – | – | – | – | inactive | inactive | inactive | inactive | p53 activation efficacy, cherry pick confirmation [1]: 73.0027; p53 activation efficacy, primary screening [1]: 39.9627; EC50 [1, 8]: 17.8 µM; EC50 [1, 9]: 7.69 µM; EC50 (p53RE-bla HCT-116 cells; [10]): 3.63 µM and 5.54 µM and 3.92 µM |
| O=C(NC(=O)c1c(F)cccc1F)Nc1cc(Cl)c(Oc2ncc(C(F)(F)F)cc2Cl)c(Cl)c1 [Chlorfluazuron] | – | 31.4 µM | – | 80.6% | inactive | inactive | inactive | inactive | inactive | inactive | inactive | inactive | inactive | inactive | inactive | inactive | p53 activation EC50, cherry pick confirmation [1]: inactive; p53 activation efficacy, cherry pick confirmation [1]: inactive |
| COc1c(C)c2c(c(O)c1C/C=C(\C)CCC(=O)OCCN1CCOCC1)C(=O)OC2 [Mycophenolate mofetil] | 0.209 µM | 0.163 µM | 56.2% | 36.3% | inactive | inactive | inactive | inactive | inactive | inactive | inactive | inactive | inactive | inactive | inactive | inactive | – |
| O=c1cc(-c2ccc(O)cc2)oc2cc(O)cc(O)c12 [Apigenin] | 46.5 µM | 18.2 µM | 32.2% | 51.2% | inactive | inactive | inactive | inactive | inactive | inactive | inactive | inactive | inactive | inactive | inactive | inactive | – |
| CC[n+]1c(-c2ccccc2)c2cc(N)ccc2c2ccc(N)cc21 [Ethidium bromide] | 5.41 µM | 4.43 µM | 176% | 182% | inactive | inactive | inactive | inactive | inactive | inactive | inactive | inactive | inactive | inactive | inactive | inactive | – |
| O=C1c2ccccc2C(=O)C1(O)O [Ninhydrin] | 22.3 µM | 41.2 µM | 44.3% | 55.1% | inactive | inactive | inactive | inactive | inactive | inactive | inactive | inactive | inactive | inactive | inactive | inactive | – |
| CN1CCC(Nc2ncc3ncnc(Nc4ccc(F)c(Cl)c4)c3n2)CC1.Cl.Cl [Falnidamol dihydrochloride] | – | – | – | – | – | – | – | – | – | – | – | – | – | – | – | – | EC50 ([1]; read-out: p53 activation EC50, No MS): 16.7 µM and 12.9 µM; p53 activation EC50, HLM [2]: inactive; EC50 [2]: 14.2 µM; Viability EC50, HLM (p53RE-bla HCT-116 cells): inactive; Viability EC50, No MS (p53RE-bla HCT-116 cells): inactive; Viability EC50, RLM (p53RE-bla HCT-116 cells): inactive; Viability Efficacy, HLM (p53RE-bla HCT-116 cells): inactive; Viability Efficacy, No MS (p53RE-bla HCT-116 cells): inactive; Viability Efficacy, RLM (p53RE-bla HCT-116 cells): inactive; EC50 ([3]; read-out: p53 activation EC50, RLM): 17.2 µM and 8.9 µM |
| CCS(=O)(=O)CCSP(=O)(OC)OC [Demeton-S-methylsulphon] | – | – | – | – | – | – | – | – | – | – | – | – | – | – | – | – | p53 activation EC50 [1]: inactive; p53 activation efficacy [1]: inactive; p53 activation EC50 [2]: inactive; Viability EC50 (p53RE-bla HCT-116 cells): inactive; Viability efficacy (p53RE-bla HCT-116 cells): inactive; EC50 [3]: 11.8 µM; p53 activation efficacy [3]: 41.936 and 34.343 |
